One may read the Kd as the constant that tells how readily two partners part at equilibrium. A higher Kd goes with lower affinity.

We go through one molecule from paper PMC5287478, “Quantitative Affinity Determination by Fluorescence Anisotropy Measurements of Individual Nanoliter Droplets” (Analytical Chemistry, 2017).

Each structure is given as a SMILES string.

Data set [1] can be described thus: Retention of BRC4fl in droplets (leakage into oil phase). It is filed as physicochemical. Particulars: HFE 7500 with 1% w/v AZ2C fluorosurfactant, approx. 1 minute to detection point. The procedure:
AZ2C fluoroLsurfactant (made inLhouse according to a previously published method).4 The time to reach the detection point (approx. 1 minute) was sufficient for significant leakage of BRC4fl from the droplet. Addition of additives such as BSA has been found effective in increasing the effective solubility of reagents.5 BSA was titrated using the same droplet titration technique up to 1.2%. The fluorescence intensity measured at the detection point was […]
increase retention of the fluorophore in the droplet. Anisotropy reached a steadyLstate value when BSA was present at concentrations above 0.2%. Although the linear increase of […]
presence of BSA concentrations above 1% made droplet formation more difficult, because of the increased viscosity of the aqueous phase and the formation of BSA vesicles. Therefore 1% BSA was chosen as a compromise between these effects and all experiments were […]
Figure S4. Influence of BSA concentration on the retention of BRC4fl within the droplet. (A) Intensity is linearly increasing with BSA concentration. (B) Fluorescence anisotropy converges towards a steadyLstate value above a threshold concentration of BSA

Data set [2] deals with T1, HumRadA18 (Pyrococcus furiosus, UniProt O74036, D220A/D267M/E219S/H199N/H264F/I169M/I200V/I222M/K198D/K221M/K223V/K263R/L213Q/L225S/L274E/Q216Y/V168A/V202Y/V215L/V232Y/W170Y/Y201A/Y275F).
T1 construct: made in house; host or cells: E. coli BL21(DE3) pUBS520, pBAT plasmid
The experiment in a line: Competition assay with BRC4^fl in nanoliter droplets. It counts as binding.

Data set [3] deals with RAD51. Particulars: 30–35 amino acid peptide corresponding to BRC repeat 4; cited from earlier work. From the text: We explore the potential of single droplet anisotropy measurements for the study of structure–activity relationships for protein–protein interactions in nanoliter volumes. Specifically, we address the interactions of the BRC4 peptide, a reductionist model of the recombination mediator BRCA2, with mutants of an archaeal surrogate of the recombinase RAD51.[10] […] Inhibit ...

On to `CC[C@H](C)[C@H](NC(=O)[C@H](CCCCN)NC(=O)[C@@H](NC(=O)[C@H](CCCCN)NC(=O)[C@H](CCCCN)NC(=O)CNC(=O)[C@H](CO)NC(=O)[C@H](C)NC(=O)[C@@H](NC(=O)[C@H](Cc1c[nH]cn1)NC(=O)[C@H](Cc1ccccc1)NC(=O)CNC(=O)[C@H](CC(C)C)NC(=O)[C@H](CC(C)C)NC(=O)[C@@H](NC(=O)[C@@H]1CCCN1C(=O)[C@H](CCC(=O)O)NC(=O)[C@H](CCCCN)NC(=O)[C@H](CSC1CC(=O)N(c2ccc3c(c2)C(=O)OC32c3ccc(O)cc3Oc3cc(O)ccc32)C1=O)NC(C)=O)[C@@H](C)O)[C@@H](C)O)C(C)C)C(=O)N[C@@H](C)C(=O)N[C@@H](CCCCN)C(=O)N[C@@H](CCC(=O)O)C(=O)N[C@@H](CO)C(=O)N[C@@H](CC(C)C)C(=O)N[C@@H](CC(=O)O)C(=O)N[C@@H](CCCCN)C(=O)N[C@H](C(=O)N[C@@H](CCCCN)C(=O)N[C@@H](CC(N)=O)C(=O)N[C@@H](CC(C)C)C(=O)N[C@@H](Cc1ccccc1)C(=O)N[C@@H](CC(=O)O)C(=O)N[C@@H](CCC(=O)O)C(=O)N[C@@H](CCCCN)C(=O)N[C@@H](CCC(=O)O)C(=O)N[C@@H](CCC(N)=O)C(N)=O)C(C)C` (stereo partly drawn) [BRC4], for which, in data set [1], the leakage from droplet entry is “high propensity for leakage”. In data set [2], binding was put at a Kd of 45 nM. The RAD51 activity result in data set [3] is reported as “block RAD51 activity”.
